The values below come from US20220411495A1, “POSITIVE ALLOSTERIC MODULATORS OF THE CALCIUM-SENSING RECEPTOR” (VIB VZW, priority 2019, published 2022).

In this experiment the target is T1, CaSR 7-transmembrane domain allosteric binding site (Homo sapiens, UniProt P41180).
T1 sequence (P41180 20-1078): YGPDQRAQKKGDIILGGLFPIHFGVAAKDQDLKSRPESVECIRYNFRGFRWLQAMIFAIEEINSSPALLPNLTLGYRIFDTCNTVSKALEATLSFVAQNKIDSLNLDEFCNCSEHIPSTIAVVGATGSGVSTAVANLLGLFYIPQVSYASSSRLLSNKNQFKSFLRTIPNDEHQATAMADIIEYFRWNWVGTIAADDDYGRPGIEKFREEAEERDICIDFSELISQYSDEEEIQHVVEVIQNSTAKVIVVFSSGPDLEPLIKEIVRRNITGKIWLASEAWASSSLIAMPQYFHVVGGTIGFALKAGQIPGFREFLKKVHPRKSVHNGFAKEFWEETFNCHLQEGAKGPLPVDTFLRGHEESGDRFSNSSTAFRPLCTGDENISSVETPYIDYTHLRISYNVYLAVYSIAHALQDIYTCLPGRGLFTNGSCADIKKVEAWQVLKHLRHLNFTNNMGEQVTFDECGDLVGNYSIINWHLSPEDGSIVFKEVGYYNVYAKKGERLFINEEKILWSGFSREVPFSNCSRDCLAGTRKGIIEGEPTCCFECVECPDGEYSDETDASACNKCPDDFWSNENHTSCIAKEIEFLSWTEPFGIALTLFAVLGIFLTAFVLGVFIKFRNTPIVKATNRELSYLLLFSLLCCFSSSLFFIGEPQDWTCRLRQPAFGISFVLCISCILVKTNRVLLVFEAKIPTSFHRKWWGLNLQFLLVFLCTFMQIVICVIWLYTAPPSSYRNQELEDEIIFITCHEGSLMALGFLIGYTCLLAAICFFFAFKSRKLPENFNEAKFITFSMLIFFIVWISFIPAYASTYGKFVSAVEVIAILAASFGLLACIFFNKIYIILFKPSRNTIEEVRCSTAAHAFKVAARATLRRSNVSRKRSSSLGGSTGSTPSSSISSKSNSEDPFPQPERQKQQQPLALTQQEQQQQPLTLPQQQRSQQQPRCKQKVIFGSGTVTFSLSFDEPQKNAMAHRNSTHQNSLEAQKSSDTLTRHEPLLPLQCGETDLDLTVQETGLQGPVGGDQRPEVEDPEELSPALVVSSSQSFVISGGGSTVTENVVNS
The experiment is described as follows: [3H]evocalcet radioligand displacement. On the procedure: For the seven different nanobodies with potencies in the 10 to 600 nM range, further characterization of their recognition site on the CaSR antigen was performed, since the identification of the nanobody binding-sites at the CaSR is key to understand their interaction and mode-of-action at a molecular and structural level, and will further aid in the development of second-generation nanobodies with enhanced pharmacological parameters. Nanobodies belonging to each family of the five different nanobody families are expected to interact with distinct regions of the CaSR.

As for `CC(C)(Cc1ccc2ccccc2c1)NC[C@@H](O)COc1cccc(Cl)c1C#N` [NPS 2143], the “Displacement of [3H]evocalcet binding” value is listed as “did displace”.
